Source: publication PMC12136442, “Cholesterol metabolism and intrabacterial potassium homeostasis are intrinsically related in Mycobacterium tuberculosis” (PLOS Pathogens, 2025)

Legend:
MceG = target: T1, MceG (Mycobacterium tuberculosis, UniProt P9WQL5)
T1 construct: gene mkl

CeoB [1] = target: T2, CeoB (Mycobacterium tuberculosis, UniProt Q7D6R7)
CeoB [2] = target: T2, CeoB; remark: listed apart in the source

T2 sequence (Q7D6R7 entry or part of it): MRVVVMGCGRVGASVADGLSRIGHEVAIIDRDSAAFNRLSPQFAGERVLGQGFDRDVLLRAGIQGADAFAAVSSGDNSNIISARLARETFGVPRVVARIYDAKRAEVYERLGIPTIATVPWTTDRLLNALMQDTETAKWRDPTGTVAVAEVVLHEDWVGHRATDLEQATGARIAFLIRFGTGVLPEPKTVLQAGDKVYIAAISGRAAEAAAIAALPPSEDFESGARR
T1 sequence (P9WQL5 whole entry): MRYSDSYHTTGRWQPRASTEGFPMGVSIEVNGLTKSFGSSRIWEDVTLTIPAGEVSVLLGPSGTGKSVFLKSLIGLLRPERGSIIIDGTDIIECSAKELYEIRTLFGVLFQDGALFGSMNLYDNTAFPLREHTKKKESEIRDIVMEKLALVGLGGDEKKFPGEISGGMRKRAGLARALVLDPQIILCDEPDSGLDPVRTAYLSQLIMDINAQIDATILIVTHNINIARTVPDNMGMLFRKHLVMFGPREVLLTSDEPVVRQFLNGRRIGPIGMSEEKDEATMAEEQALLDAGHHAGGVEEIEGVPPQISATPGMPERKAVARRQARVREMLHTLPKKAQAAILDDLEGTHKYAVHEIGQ

Nc1ncnc2c1ncn2[C@@H]1O[C@H](COP(=O)(O)OP(=O)(O)OP(=O)(O)O)[C@@H](O)[C@H]1O [ATP]
ADP-Glo kinase assay (luminescence) (MceG): purified MceG exhibited ATPase activity

CC(C)CCC[C@@H](C)[C@H]1CC[C@H]2[C@@H]3CC=C4C[C@@H](O)CC[C@]4(C)[C@H]3CC[C@]12C [cholesterol]
band intensity at 65oC/50oC (CeoB [1]): the presence of cholesterol resulted in an increase in CeoB thermostability

CC(C)[C@@H](C)/C=C/[C@@H](C)[C@H]1CC[C@H]2C3=CC=C4C[C@@H](O)CC[C@]4(C)C3=CC[C@]12C [dehydroergosterol, ergosta-5,7,9(11),22-tetraen-3β-ol]
DHE fluorescence increase (ex 338 nm, em 381 nm) (CeoB [2]): incubation of CeoB with DHE resulted in significantly higher DHE fluorescence signal
